Patent US7927579B2, “Tandem analyses of noncovalently driven effectors for modulatory mapping of activities of protein sites” (priority 2003, dated 2011)
Where no end group is shown, it is not given here.

Tests used:
HIV protease I = biological target: T1, HIV protease I (Human immunodeficiency virus type 1 group M subtype B, UniProt P04585); details: covalent attachment to Cys95 at the dimer interfaces; Davis et al.; cited from earlier work
T1 construct: HIV-1 PR (15 μg/ml final concentration) was preincubated at 25 C

HIV I protease = HIV I protease (Human immunodeficiency virus type 1 group M subtype B, UniProt P04585); details: Danielson et al.; cited from earlier work
HIV PR [1] = biological target: T2, HIV PR (Human immunodeficiency virus type 1 group M subtype B, UniProt P04585); assay: Octapeptide library screen against HIV PR with and without CuCl2; type: biochemical; details: non-substrate based inhibiting peptide; residual HIV PR activity measured after cupric ion scavenger
T2 construct: preincubating the tetrapeptide(s) with HIV PR then adding the disulfide
Protocol: Combinatorial libraries of octapeptides were synthesized using T, L, N, F, S, G, F Q, V and I at positions 3-6 to generate 10,000 octapeptides. E and I occupied positions 1 and 2, respectively, and G, L occupied positions […], respectively. The C-terminus was in amide form, and the N terminus was in amino form. The peptide libraries were synthesized by standard procedures known in the art, Houghten, supra. The libraries were screened against HIV PR with and without CuCl2. CuCl2 was added to block 50-75% activity. Libraries were screened against CuCl2 by preincubating the tetrapeptide(s) with HIV PR, then adding CuCl2 at t0 and waiting until time tx has elapsed, the time required to inhibit 50-75% of enzyme activity in the absence of the library. At tx residual HIV PR activity was measured according to Danielson et al, supra, after adding cupric ion scavenger, namely, iminodiacetic.

HIV PR [2] = biological target: T2, HIV PR; assay: Tetrapeptide library screen against glutathione or II on HIV PR (assay in Salto et al.); type: biochemical; details: tetrapeptides preincubated with HIV PR, then disulfide added; (100 μM) printed; bind at the dimer interface
Protocol: Targeting Cys95. […] Davis et al. Biochemistry 20:2482-2488 (1996). For quantification of the irreversible inactivation of HIV proteases by these disulfides, HIV-1 PR (15 μg/ml final concentration) was preincubated at 25 C in 50 mM HEPES (pH 8.0), 1M NaCl, 1 mM EDTA, 5% Me2SO in the presence of a 10 μM to 1 mM concentration of each inhibitor. At various times, aliquots were removed and assayed for activity. The rates of inactivation were calculated after Salto et al. J. Biol. Chem. 269:10691-10698 (1994).
Combinatorial libraries containing tetrapeptides were synthesized with free C and N termini using T, L, N, F, R, S, V, G, F Q, and H as amino acid residues randomly located at the four positions of P4P3P2P1 according to procedures well known in the art (Houghten, R. A. Annu. Rev. Pharmacol. Toxicol. 2000, 40:273-282 and references therein). The amino acids were either spatially separated or synthesized in 100 pools of 100 tetrapeptides. Libraries were screened against glutathione or II by preincubating the tetrapeptide(s) with HIV PR then adding the disulfide and waiting until time t^ has elapsed (the time required to inhibit 50-75% of the biological target molecule's activity) in the absence of the library.

Compound	inactivation of HIV protease I by covalent attachment to Cys95 (HIV protease I)	activity in library screen against disulfide inactivation of HIV PR (HIV PR [2])	further results
O=C(O)c1cc(SSc2ccc([N+](=O)[O-])c(C(=O)O)c2)ccc1[N+](=O)[O-] [5,5′-dithiobis(2-nitrobenzoic acid)]	inactivate HIV protease I	–	–
[Cl][Cu][Cl] [Cupric ions, CuCl2]	–	–	inactivation of HIV I protease by binding to Cys67 and His69 (HIV I protease): specifically inactivate HIV I protease
N[C@@H](CCC(=O)N[C@@H](CS)C(=O)NCC(=O)O)C(=O)O [glutathione]	inactivate HIV protease I	–	–
LGQGVSIE-NH2	–	–	inhibitory activity against HIV PR (HIV PR [1]): about 5 μM
S-F-N-L (SFNL) [tetrapeptide with free C and N termini from combinatorial library]	–	most active	–
TLNL [tetrapeptide with free C and N termini from combinatorial library]	–	most active	–
